# In publication PMC11292843 (ACS Omega, 2024):
# Like-named read-outs stand apart in the source and are kept apart here.
# How the values were obtained:
# [1] = target: T1, hTCPTP (Homo sapiens, UniProt P17706); assay: Selectivity assay against TCPTP; assay type: biochemical; settings: for IC50: concentrations tested 1 to 400 μM, read-out: TCPTP IC50 ± SD; for selectivity (PTP1B over TCPTP) / fold selectivity for PTP1B over TCPTP: hPTP1B1–400 vs hTCPTP
# T1 construct: His tag (vector pET-28a(+)-TEV, with TEV site); made in house; host or cells: E. coli BL21 (DE3)
# T1 sequence (P17706 1-415): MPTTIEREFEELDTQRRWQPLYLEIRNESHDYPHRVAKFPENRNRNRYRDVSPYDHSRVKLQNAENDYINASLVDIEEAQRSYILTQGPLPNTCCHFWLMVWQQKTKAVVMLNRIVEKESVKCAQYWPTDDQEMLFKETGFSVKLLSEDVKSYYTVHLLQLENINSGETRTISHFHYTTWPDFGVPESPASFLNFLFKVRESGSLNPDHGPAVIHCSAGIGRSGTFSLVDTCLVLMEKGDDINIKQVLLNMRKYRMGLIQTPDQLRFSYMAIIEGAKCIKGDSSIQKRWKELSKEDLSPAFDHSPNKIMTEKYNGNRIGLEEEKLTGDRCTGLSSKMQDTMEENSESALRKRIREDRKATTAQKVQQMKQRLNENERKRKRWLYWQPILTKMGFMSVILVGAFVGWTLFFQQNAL
# Protocol: A spectrocolorimetric method previously described[3] was employed to test the inhibitory effect of the new compounds against PTP1B. […] Enzyme solutions containing pNPP and inhibitors were incubated at 37 °C for 15 min. […] The percentage of inhibition was plotted as a function of the inhibitor concentrations.
# Similarly to the IC50, the assays to determine the selectivity were carried out in the same experimental conditions using hPTP1B1–400 and hTCPTP.
# The expression vector pET-28a(+)-TEV was obtained from Invitrogen (Waltham, MA, USA). E. coli strain DH5α and BL21 (DE3) were purchased from Invitrogen (Waltham, MA, USA). The gene PTPN2 was subcloned into the expression vector pET-28a (+)-TEV, using the NDEI and BAMHI cloning sites. The construction pET-28A(+)-TEV–PTPN2 was transformed into E. coli strain BL21 (DE3). Transformed E. coli cells were grown in LB media containing kanamycin ([…]) at 37 °C for 6 h with continuous agitation (250 rpm). Once the cultures reached an A600 of 0.6 (about 6 h), protein expression was induced with 1 mM IPTG at 37 °C, 250 rpm for 8 h. After centrifuge (4500 rpm, 15 min, 4 °C), the grown and IPTG-induced cultures and bacterial pellet were resuspended in Tris buffer (pH 6.8) and lysed by sonication (10 cycles, intervals of 30 s) in an ice–water bath with an ultrasonic processor (Cole-Parmer, Vernon Hills, IL, USA). […] The column was equilibrated with three column volumes of 50 mM Tris, pH 6.8. His-tagged protein was eluted with Tris 50 mM and 300 mM imidazole with one column volume. […] Fractions containing hTCPTP were dialyzed in 50 mM Tris, pH 6.8. The purity of the protein was followed by SDS-polyacrylamide gel electrophoresis (SDS-PAGE) using a 12% resolving gel.
# [2] = system: PTP1B; settings: cited from earlier work
# [3] = system: TCPTP; settings: cited from earlier work
# [4] = target: T2, hPTP1B1–400 (Homo sapiens, UniProt P18031); assay: Enzyme kinetics (Lineweaver–Burk, varying pNPP); settings: for inhibition mechanism: hPTP1B1–400, best fit of inhibition models; for Km / Vmax: hPTP1B1–400, pNPP 0.1–0.5 mM
# T2 sequence (P18031 1-400): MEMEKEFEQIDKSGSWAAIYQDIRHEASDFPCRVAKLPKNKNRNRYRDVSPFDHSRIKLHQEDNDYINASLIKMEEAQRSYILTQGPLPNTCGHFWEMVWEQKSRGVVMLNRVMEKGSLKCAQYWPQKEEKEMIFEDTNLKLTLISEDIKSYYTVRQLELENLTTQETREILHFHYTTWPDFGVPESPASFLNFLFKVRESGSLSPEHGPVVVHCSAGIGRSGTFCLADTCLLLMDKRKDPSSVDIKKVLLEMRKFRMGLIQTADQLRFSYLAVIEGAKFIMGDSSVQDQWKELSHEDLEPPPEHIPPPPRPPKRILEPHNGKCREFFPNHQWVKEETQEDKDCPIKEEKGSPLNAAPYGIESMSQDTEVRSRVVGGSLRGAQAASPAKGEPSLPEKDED
# [5] = target: T2, hPTP1B1–400; assay: PTP1B inhibition assay (pNPP, spectrocolorimetric), long form; settings: for fold higher potency for hPTP1B1–400 over hPTP1B1–285: ratio of IC50 values, long vs short form
# [6] = target: T3, hPTP1B1–285 (Homo sapiens, UniProt P18031); assay: PTP1B inhibition assay (pNPP, spectrocolorimetric), short form
# T3 sequence (P18031 1-285): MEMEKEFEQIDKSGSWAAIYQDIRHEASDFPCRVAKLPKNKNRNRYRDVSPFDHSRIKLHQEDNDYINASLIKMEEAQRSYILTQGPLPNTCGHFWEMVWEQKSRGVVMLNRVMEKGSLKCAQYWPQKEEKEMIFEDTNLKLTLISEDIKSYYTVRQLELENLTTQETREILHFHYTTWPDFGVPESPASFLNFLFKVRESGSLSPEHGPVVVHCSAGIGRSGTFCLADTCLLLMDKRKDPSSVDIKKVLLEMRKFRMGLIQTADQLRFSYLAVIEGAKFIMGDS
# [7] = target: T2, hPTP1B1–400; set-up: containing purified hPTP1B 66 nM (hPTP1B1–285 and hPTP1B1–400) and pNPP 0.5 mM; made in house; method as in PMID 36997321; settings: cited from earlier work
# [8] = IC50 ± SD hPTP1B1–400, hPTP1B 66 nM, pNPP 0.5 mM, 37 °C, 15 min
# [9] = PTP1B IC50 ± SD, selectivity assay, hPTP1B1–400
SMILES,IC50 [1],selectivity (PTP1B over TCPTP) [1],Ki [4],inhibition mechanism [4],Km [4],Vmax [4],fold higher potency for hPTP1B1–400 over hPTP1B1–285 [5],IC50 [6],"IC50 [5, 8]","IC50 [5, 9]",further results
"C[C@H](CCC(=O)O)[C@H]1CC[C@H]2[C@@H]3CC[C@@H]4C[C@H](O)CC[C@]4(C)[C@H]3CC[C@]12C [LA, lithocholic acid, reference compound]",> 400 µM,only inhibited PTP1B but not TCPTP and Yes,5.5 ± 1.1 µM,uncompetitive inhibitor,1200 ± 300 µM,1.7 ± 0.3 mM/min,1.5 fold,22.2 ± 0.9 µM,–,–,IC50 ([2]; read-out: IC50 (PTP1B)): 12.5 µM; fold selectivity for PTP1B over TCPTP [3]: 2 fold; IC50 [5]: 14 ± 0.9 µM
"C[C@H]1[C@H](C)CC[C@]2(C(=O)O)CC[C@]3(C)C(=CC[C@@H]4[C@@]5(C)CC[C@H](O)C(C)(C)[C@@H]5CC[C@]43C)[C@H]12 [UA, ursolic acid]",> 400 µM,–,–,–,–,–,–,–,–,–,Vmax [7]: 0.63 ± 0.08 mM/min; inhibition mechanism [7]: mixed inhibition
CC(C)[C@@H](CC[C@@H](C)[C@H]1CC[C@H]2[C@@H]3[C@H](O)C[C@H]4C[C@@H](NCCCNCCCCNCCCN)CC[C@]4(C)[C@H]3CC[C@]12C)OS(=O)(=O)O [Trodusquemine],–,–,–,–,–,–,–,–,–,–,inhibition mechanism [2]: […]; IC50 ([2]; read-out: IC50 against PTP1B): […]; IC50 ([3]; read-out: IC50 against TCPTP): 224 µM
"O=C(O)C(=O)Nc1sc2c(c1C(=O)O)CCNC2 [TCS401, reference compound]",6.7 ± 0.6 µM,–,–,–,–,–,–,12.4 ± 1 µM,8.1 ± 0.9 µM,8.15 ± 0.91 µM,Ki [2]: 4.7 µM
"C[C@H](CCC(=O)O)C1CCC2C3CC[C@@H]4C[C@](O)(CNCc5ccc(C(F)(F)F)cc5)CC[C@]4(C)C3CC[C@@]21C.Cl (stereo partly drawn) [compound 6n, 1-((3S,5R,10S,13R)-17-((R)-4-carboxybutan-2-yl)-3-hydroxy-10,13-dimethylhexadecahydro-1H-cyclopenta[a]phenanthren-3-yl)-N-(4-(trifluoromethyl)benzyl)methanaminium Chloride]",> 400 µM,Yes,3.4 ± 0.3 µM,uncompetitive inhibition,520 ± 70 µM,0.73 ± 0.06 mM/min,~3 fold,16.3 ± 0.9 µM,5.3 ± 0.2 µM,5.3 ± 0.2 µM,fold selectivity for PTP1B over TCPTP [1]: around 75 fold; fold more potent than LA ([5]; hPTP1B1–400 IC50 compared with LA): 3 fold
"Cc1ccc(C(=O)Nc2ccc(S(=O)(=O)O)c3cc(S(=O)(=O)O)cc(S(=O)(=O)O)c23)cc1NC(=O)c1cccc(NC(=O)Nc2cccc(C(=O)Nc3cc(C(=O)Nc4ccc(S(=O)(=O)O)c5cc(S(=O)(=O)O)cc(S(=O)(=O)O)c45)ccc3C)c2)c1 [SUR, suramin]",–,–,–,–,–,–,–,–,–,–,Km [7]: 290 ± 20 µM; Vmax [7]: 0.64 ± 0.02 mM/min; inhibition mechanism [7]: competitive inhibition
"C[C@H](CCC(=O)O)C1CCC2C3CC[C@@H]4C[C@](O)(CNCc5cc(C(F)(F)F)cc(C(F)(F)F)c5)CC[C@]4(C)C3CC[C@@]21C.Cl (stereo partly drawn) [compound 6o, N-(3,5-bis(trifluoromethyl)benzyl)-1-((3S,5R,10S,13R)-17-((R)-4-carboxybutan-2-yl)-3-hydroxy-10,13-dimethylhexadecahydro-1H-cyclopenta[a]phenanthren-3-yl)methanaminium Chloride]",> 400 µM,Yes,3.9 ± 0.7 µM,Uncompetitive,1900 ± 300 µM,2.7 ± 0.4 mM/min,–,43 ± 1.3 µM,11 ± 0.2 µM,11 ± 0.2 µM,–
"C[C@H](CCC(=O)O)C1CCC2C3CC[C@@H]4C[C@](O)(CNCc5cccc(C(F)(F)F)c5)CC[C@]4(C)C3CC[C@@]21C.Cl (stereo partly drawn) [compound 6m, 1-((3S,5R,10S,13R)-17-((R)-4-carboxybutan-2-yl)-3-hydroxy-10,13-dimethylhexadecahydro-1H-cyclopenta[a]phenanthren-3-yl)-N-(3-(trifluoromethyl)benzyl)methanaminium Chloride]",> 400 µM,Yes,2.5 ± 0.4 µM,uncompetitive inhibition,780 ± 200 µM,1.05 ± 0.18 mM/min,around 5 fold,34.9 ± 0.4 µM,7.3 ± 0.5 µM,7.3 ± 0.5 µM,fold selectivity for PTP1B over TCPTP [1]: around 75 fold
